N#Cc1ccncc1
solubility (mole fraction)
Conditions | 278.15 K | 283.15 K | 288.15 K | 293.15 K | 298.15 K | 303.15 K | 308.15 K | 313.15 K | 318.15 K
in acetone | 0.162 | 0.186 | 0.217 | 0.246 | 0.281 | 0.318 | 0.351 | 0.398 | 0.444
in ethanol | 0.0165 | 0.0242 | 0.035 | 0.0506 | 0.073 | 0.101 | 0.142 | 0.19 | 0.261
in methanol | 0.0384 | 0.0504 | 0.0656 | 0.0854 | 0.108 | 0.139 | 0.179 | 0.225 | 0.283
in n-propanol | 0.042 | 0.0556 | 0.0718 | 0.0926 | 0.118 | 0.147 | 0.184 | 0.237 | 0.303
in water | 0.00264 | 0.00327 | 0.004 | 0.00494 | 0.00603 | 0.00727 | 0.00875 | 0.0104 | 0.0123

Source: BigSolDB 2.1
